Assay results: ChEMBL document CHEMBL1671858, “Coprevalence of plasmid-mediated quinolone resistance determinants QepA, Qnr, and AAC(6')-Ib-cr among 16S rRNA methylase RmtB-producing Escherichia coli isolates from pigs” (2008)
≈ marks a conversion by molar mass, not a printed value.

How the values were obtained:
Format in all cases: functional
[1] = system: Escherichia coli; assay: Antimicrobial activity against Escherichia coli isolate GZ10 PFGE type R harboring qepA gene by agar dilution method
[2] = system: Escherichia coli; assay: Antimicrobial activity against Escherichia coli isolate GZ16 transconjugant harboring 16S rRNA methylase RmtB and qepA by agar dilution method relative to recipient strain
[3] = system: Escherichia coli; assay: Antimicrobial activity against Escherichia coli isolate GZ5 transconjugant harboring 16S rRNA methylase RmtB and qepA by agar dilution method relative to recipient strain
[4] = system: Escherichia coli; assay: Antimicrobial activity against Escherichia coli isolate GZ7 transconjugant harboring 16S rRNA methylase RmtB and qepA and qnrS1 by agar dilution method relative to recipient strain
[5] = system: Escherichia coli; assay: Antimicrobial activity against Escherichia coli isolate GZ6 transconjugant harboring 16S rRNA methylase RmtB and qepA by agar dilution method relative to recipient strain
[6] = system: Escherichia coli; assay: Antimicrobial activity against Escherichia coli isolate CQ2 PFGE type I2 harboring qepA gene by agar dilution method
[7] = system: Escherichia coli; assay: Antimicrobial activity against Escherichia coli isolate CQ19 transconjugant harboring 16S rRNA methylase RmtB and qepA, aac(6')-Ib-cr gene by agar dilution method relative to recipient strain
[8] = system: Escherichia coli; assay: Antimicrobial activity against Escherichia coli isolate GZ5 PFGE type B harboring qepA gene by agar dilution method
[9] = system: Escherichia coli; assay: Antimicrobial activity against Escherichia coli isolate CQ20 PFGE type J1 harboring qepA gene by agar dilution method
[10] = system: Escherichia coli; assay: Antimicrobial activity against Escherichia coli isolate CQ26 PFGE type K harboring qepA gene by agar dilution method
[11] = system: Escherichia coli; assay: Antimicrobial activity against Escherichia coli isolate GZ9 PFGE type D harboring qepA gene by agar dilution method
[12] = system: Escherichia coli; assay: Antimicrobial activity against Escherichia coli isolate CQ10 transconjugant harboring 16S rRNA methylase RmtB and qepA by agar dilution method relative to recipient strain
[13] = system: Escherichia coli; assay: Antimicrobial activity against Escherichia coli isolate GZ12 PFGE type F harboring qepA gene by agar dilution method
[14] = system: Escherichia coli; assay: Antimicrobial activity against Escherichia coli isolate CQ10 PFGE type L harboring qepA gene by agar dilution method
[15] = system: Escherichia coli; assay: Antimicrobial activity against Escherichia coli isolate CQ16 transconjugant harboring 16S rRNA methylase RmtB and qepA, qnrS2, aac(6')-Ib-cr gene by agar dilution method relative to recipient strain
[16] = system: Escherichia coli; assay: Antimicrobial activity against Escherichia coli isolate GZ8 transconjugant harboring 16S rRNA methylase RmtB and qepA by agar dilution method relative to recipient strain
[17] = system: Escherichia coli; assay: Antimicrobial activity against Escherichia coli isolate GZ3 transconjugant harboring 16S rRNA methylase RmtB and qepA by agar dilution method relative to recipient strain
[18] = system: Escherichia coli; assay: Antimicrobial activity against Escherichia coli isolate CQ13 PFGE type K harboring qepA gene by agar dilution method
[19] = system: Escherichia coli; assay: Antimicrobial activity against Escherichia coli isolate CQ22 PFGE type P harboring qepA gene by agar dilution method
[20] = system: Escherichia coli; assay: Antimicrobial activity against Escherichia coli isolate CQ7 transconjugant harboring 16S rRNA methylase RmtB and qepA, qnrS2, aac(6')-Ib-cr gene by agar dilution method relative to recipient strain
[21] = system: Escherichia coli; assay: Antimicrobial activity against Escherichia coli isolate CQ14 transconjugant harboring 16S rRNA methylase RmtB and qepA by agar dilution method relative to recipient strain
[22] = system: Escherichia coli; assay: Antimicrobial activity against Escherichia coli isolate GZ13 PFGE type F harboring qepA gene by agar dilution method
[23] = system: Escherichia coli; assay: Antimicrobial activity against Escherichia coli isolate CQ14 PFGE type M harboring qepA gene by agar dilution method
[24] = system: Escherichia coli; assay: Antimicrobial activity against Escherichia coli isolate GZ1 transconjugant harboring 16S rRNA methylase RmtB and qnrS1 by agar dilution method relative to recipient strain
[25] = system: Escherichia coli; assay: Antimicrobial activity against Escherichia coli isolate CQ2 transconjugant harboring 16S rRNA methylase RmtB and qepA by agar dilution method relative to recipient strain
[26] = system: Escherichia coli; assay: Antimicrobial activity against Escherichia coli isolate GZ4 transconjugant harboring 16S rRNA methylase RmtB and qepA by agar dilution method relative to recipient strain
[27] = system: Escherichia coli; assay: Antimicrobial activity against Escherichia coli isolate GZ8 PFGE type C harboring qepA gene by agar dilution method
[28] = system: Escherichia coli; assay: Antimicrobial activity against Escherichia coli isolate GZ10 transconjugant harboring 16S rRNA methylase RmtB and qepA, aac(6')-Ib-cr gene by agar dilution method relative to recipient strain
[29] = system: Escherichia coli; assay: Antimicrobial activity against Escherichia coli isolate CQ15 PFGE type I1 harboring qepA gene by agar dilution method
[30] = system: Escherichia coli; assay: Antimicrobial activity against Escherichia coli isolate CQ6 PFGE type Q harboring qepA gene by agar dilution method
[31] = system: Escherichia coli; assay: Antimicrobial activity against Escherichia coli isolate GZ11 transconjugant harboring 16S rRNA methylase RmtB and qepA by agar dilution method relative to recipient strain
[32] = system: Escherichia coli; assay: Antimicrobial activity against Escherichia coli isolate CQ15 transconjugant harboring 16S rRNA methylase RmtB and qepA by agar dilution method relative to recipient strain
[33] = system: Escherichia coli; assay: Antimicrobial activity against Escherichia coli isolate CQ7 PFGE type Q harboring qepA gene by agar dilution method
[34] = system: Escherichia coli; assay: Antimicrobial activity against Escherichia coli isolate CQ5 PFGE type I2 harboring qepA gene by agar dilution method
[35] = system: Escherichia coli; assay: Antimicrobial activity against Escherichia coli isolate CQ16 PFGE type Q harboring qepA gene by agar dilution method
[36] = system: Escherichia coli; assay: Antimicrobial activity against Escherichia coli isolate GZ14 PFGE type F harboring qepA gene by agar dilution method
[37] = system: Escherichia coli; assay: Antimicrobial activity against Escherichia coli isolate GZ1 PFGE type O harboring qepA gene by agar dilution method
[38] = system: Escherichia coli; assay: Antimicrobial activity against Escherichia coli isolate CQ12 PFGE type Q harboring qepA gene by agar dilution method
[39] = system: Escherichia coli; assay: Antimicrobial activity against Escherichia coli isolate CQ4 PFGE type J1 harboring qepA gene by agar dilution method
[40] = system: Escherichia coli; assay: Antimicrobial activity against Escherichia coli isolate GZ9 transconjugant harboring 16S rRNA methylase RmtB and qepA by agar dilution method relative to recipient strain
[41] = system: Escherichia coli; assay: Antimicrobial activity against Escherichia coli isolate GZ4 PFGE type A2 harboring qepA gene by agar dilution method
[42] = system: Escherichia coli; assay: Antimicrobial activity against Escherichia coli isolate GZ11 PFGE type E harboring qepA gene by agar dilution method
[43] = system: Escherichia coli; assay: Antimicrobial activity against Escherichia coli isolate CQ18 PFGE type I2 harboring qepA gene by agar dilution method
[44] = system: Escherichia coli; assay: Antimicrobial activity against Escherichia coli isolate GZ15 transconjugant harboring 16S rRNA methylase RmtB and qepA by agar dilution method relative to recipient strain
[45] = system: Escherichia coli; assay: Antimicrobial activity against Escherichia coli isolate GZ2 transconjugant harboring 16S rRNA methylase RmtB and qnrS1 by agar dilution method relative to recipient strain
[46] = system: Escherichia coli; assay: Antimicrobial activity against Escherichia coli isolate CQ1 PFGE type U harboring qepA gene by agar dilution method
[47] = system: Escherichia coli; assay: Antimicrobial activity against Escherichia coli isolate CQ1 transconjugant harboring 16S rRNA methylase RmtB and qnrB6 by agar dilution method relative to recipient strain
[48] = system: Escherichia coli; assay: Antimicrobial activity against Escherichia coli isolate GZ16 PFGE type H harboring qepA gene by agar dilution method

In the case of `CCN1CCN(c2cc3c(cc2F)c(=O)c(C(=O)O)cn3C2CC2)CC1` [ENROFLOXACIN], the MIC [1] is reported as 16 µg/mL (≈ 44.5 µM), the “fold change (FC)” value [2] is reported as 2 and the “fold change (FC)” value [3] is reported as 8. The “fold change (FC)” value [4] was 1, the “fold change (FC)” value [5] was 2 and the MIC [6] was 2 µg/mL (≈ 5.56 µM). For the same compound, the “fold change (FC)” value [7] was 4, the MIC [8] was 16 µg/mL (≈ 44.5 µM) and the MIC [9] was 0.03 µg/mL (≈ 0.0835 µM). The MIC [10] was 0.5 µg/mL (≈ 1.39 µM), the MIC [11] was 32 µg/mL (≈ 89 µM) and the “fold change (FC)” value [12] was 2. The MIC [13] was 16 µg/mL (≈ 44.5 µM), the MIC [14] was 0.25 µg/mL (≈ 0.696 µM) and the “fold change (FC)” value [15] was 2. For the same compound, the “fold change (FC)” value [16] was 16, the “fold change (FC)” value [17] was 4 and the MIC [18] was 0.5 µg/mL (≈ 1.39 µM). The MIC [19] was 4 µg/mL (≈ 11.1 µM), the “fold change (FC)” value [20] was 2 and the “fold change (FC)” value [21] was 2. The MIC [22] was 8 µg/mL (≈ 22.3 µM), the MIC [23] was 16 µg/mL (≈ 44.5 µM) and the “fold change (FC)” value [24] was 32. The “fold change (FC)” value [25] was 16, the “fold change (FC)” value [26] was 4 and the MIC [27] was 64 µg/mL (≈ 178 µM). For the same compound, the “fold change (FC)” value [28] was 4, the MIC [29] was 2 µg/mL (≈ 5.56 µM) and the MIC [30] was 2 µg/mL (≈ 5.56 µM). The “fold change (FC)” value [31] was 4, the “fold change (FC)” value [32] was 16 and the MIC [33] was 2 µg/mL (≈ 5.56 µM). The MIC [34] was 4 µg/mL (≈ 11.1 µM), the MIC [35] was 2 µg/mL (≈ 5.56 µM) and the MIC [36] was 16 µg/mL (≈ 44.5 µM). The MIC [37] was 4 µg/mL (≈ 11.1 µM), the MIC [38] was 2 µg/mL (≈ 5.56 µM) and the MIC [39] was 0.03 µg/mL (≈ 0.0835 µM). The “fold change (FC)” value [40] was 2, the MIC [41] was 32 µg/mL (≈ 89 µM) and the MIC [42] was 128 µg/mL (≈ 356 µM). The MIC [43] was 2 µg/mL (≈ 5.56 µM), the “fold change (FC)” value [44] was 8 and the “fold change (FC)” value [45] was 2. The MIC [46] was 0.25 µg/mL (≈ 0.696 µM), the “fold change (FC)” value [47] was 1 and the MIC [48] was > 128 µg/mL.
